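Following 48 hours of exposure in 96-well plates, responses at five concentrations were used to interpolate endpoints linearly. Here, GI50 denotes the concentration required for 50% inhibition of growth. At the TGI there is no net growth.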
What was measured:
Assay in all cases: inhibition of tumour cell growth, NCI panel, 48 h
COLO 205 colon = system: COLO 205 colon
M14 melanoma = system: M14 melanoma
MALME-3M melanoma = system: MALME-3M melanoma
NCI-H460 lung = system: NCI-H460 lung
OVCAR-8 ovarian = system: OVCAR-8 ovarian
RXF 393 renal = system: RXF 393 renal
SF-295 CNS = system: SF-295 CNS
SK-MEL-2 melanoma = system: SK-MEL-2 melanoma
SN12C renal = system: SN12C renal
UO-31 renal = system: UO-31 renal

Row | SMILES | GI50 (COLO 205 colon) [µM] | TGI (COLO 205 colon) [µM] | GI50 (M14 melanoma) [µM] | TGI (M14 melanoma) [µM] | GI50 (MALME-3M melanoma) [µM] | TGI (MALME-3M melanoma) [µM] | GI50 (NCI-H460 lung) [µM] | TGI (NCI-H460 lung) [µM] | GI50 (OVCAR-8 ovarian) [µM] | TGI (OVCAR-8 ovarian) [µM] | GI50 (RXF 393 renal) [µM] | TGI (RXF 393 renal) [µM] | GI50 (SF-295 CNS) [µM] | TGI (SF-295 CNS) [µM] | GI50 (SK-MEL-2 melanoma) [µM] | TGI (SK-MEL-2 melanoma) [µM] | GI50 (SN12C renal) [µM] | TGI (SN12C renal) [µM] | GI50 (UO-31 renal) [µM] | TGI (UO-31 renal) [µM]
1 | O=[N+]([O-])c1ccc(Sc2ncccn2)c([N+](=O)[O-])c1 | 3.11 | 10.8 | 5.26 | 18.4 | 1.75 | 4.72 | 6.78 | 24.1 | 4.33 | 14 | 0.0489 | 3.23 | 5.93 | 20 | 7.15 | 21.5 | 3.46 | 13.9 | 1.93 | 7.36
2 | O=C1C=C[C@]2(C[C@@H](c3cccc(C(F)(F)F)c3)O[C@@H](c3cccc(C(F)(F)F)c3)O2)O1 | 1.88 | 5.51 | 4.11 | 23.7 | 2.27 | 7.06 | 0.6 | 2.58 | 3.03 | 13.4 | 1.67 | 3.91 | 4.18 | 17.2 | 2.21 | 6.54 | 2.91 | 12.4 | 1.84 | 5.08
3 | Cc1ccc(S(=O)(=O)NC(CCC(=O)Nc2ccc(Cl)cc2)C(=O)Nc2ccc(Cl)cc2)cc1 (stereo unspecified) | 0.531 | 2.15 | 0.0541 | 6.58 | 1.82 | 8.27 | 0.204 | 7.33 | 0.724 | 8.62 | 1.89 | 7.31 | 0.187 | 0.956 | 0.57 | 6.64 | 0.685 | 8.84 | 0.401 | 7.28
4 | Cc1cc(NC(=O)C2c3ccccc3C(=O)N(CC(C)C)C2c2cccs2)no1 (stereo unspecified) | > 100 | > 100 |  |  | > 100 | > 100 | > 100 | > 100 | > 100 | > 100 | 27.5 | > 100 | 29 | > 100 | > 100 | > 100 | > 100 | > 100 | 30.2 | > 100
5 | O=C(c1cccs1)c1c(C(F)(F)F)n([O-])c2ccc(C(F)(F)F)cc2[n+]1=O | 0.328 | 0.909 | 0.791 | 1.87 | 0.552 | 1.21 | 0.205 | 0.407 | 0.116 | 0.479 | 0.195 | 0.387 | 0.464 | 1 | 0.785 | 1.85 | 0.195 | 0.468 | 0.169 | 0.318
6 | OB([O][Hg][c]1ccccc1)[O][Hg][c]1ccccc1 | 0.502 | 1.46 | 0.283 | 0.977 | 0.244 | 0.788 | 0.589 | 3.06 | 0.522 | 3.53 | 0.229 | 0.829 | 1.6 | 3.17 | 0.168 | 0.509 | 0.266 | 0.799 | 0.539 | 1.63
7 | COc1cc(-c2cc(C(=O)N3CCN(C(=O)c4ccccc4NCc4ccco4)CC3)nc3cc(-c4ccccc4)nn23)cc(OC)c1OC | 1.48 | 8.66 | 2.9 | > 75.4 | 7.58 | > 100 | 2.55 | > 100 | 4.38 | > 100 | 1.53 | 4.17 | 1.59 | > 93.1 | 2.9 | > 79.4 | 6.7 | > 100 | 3.71 | > 100
8 | NNC(=O)/C(=C/c1cccc([N+](=O)[O-])c1)NC(=O)c1ccccc1 |  | > 100 |  | > 100 |  | > 100 |  | > 100 |  | > 100 |  | > 100 |  | > 100 |  | > 100 |  | > 100 |  | > 100
9 | COc1c(OC(C)=O)ccc(/C=C2\N=C(C)OC2=O)c1[N+](=O)[O-] |  | > 100 |  | > 100 |  | > 100 |  | > 100 |  | > 100 |  | > 100 |  | > 100 |  | > 100 |  | > 100 |  | > 100
10 | COc1ccc(-c2cc(-c3ccc(Nc4nc(Nc5ccc(Cl)cc5)nc(Nc5ccc(Cl)cc5)n4)cc3)nc(N)c2C#N)cc1 | 0.865 | 2.75 | 1.97 | 4.36 | 1.73 | 3.49 | 4.2 | > 54.2 | 2.12 | > 51.2 | 0.491 | 1.92 | 1.68 | 13.4 | 1.66 | 3.2 | 2.58 | > 100 | 1.57 | 3.26
11 | Cn1cc(-c2ccc(=O)n(Cc3cccc(-c4ncc(OCCN5CCOCC5)cn4)c3)n2)cn1 | 53.7 | > 100 | 84.2 | > 100 | > 54.9 | > 100 | > 100 | > 100 | 36.5 | > 100 | > 75.4 | > 100 | 0.49 | > 100 | > 88.3 | > 100 | > 69.4 | > 100 | 64.8 | > 100
12 | Nc1nc(N)[n+]([O-])c(N)c1NCO |  | > 100 |  | > 100 |  | > 100 |  | > 100 |  | > 100 |  | > 100 |  | > 100 |  | > 100 |  | > 100 |  | > 100
13 | O=C(CCCc1c[nH]c2ccccc12)NC1CC(=O)c2c(Br)sc(Br)c21 (stereo unspecified) | 19.8 | 41.3 |  |  | 16.4 | 48 | 19.2 | 38.7 | 9.41 | > 100 | 14.7 | 80.8 | 22.7 | 54.4 | 30.5 | > 100 | 17.3 | 33 | 22.2 | 63.1

— PubChem BioAssay (NCI)
